Assay results reported in ChEMBL document CHEMBL1201861, “Genomics of Drug Sensitity in Cancer screening data, Wellcome Trust Sanger Institute”.

Columns and labels:
Test in all cases: cells
[1] = tested on: KOSC-2; assay type: functional, cell-based, Homo sapiens; settings: Homo sapiens, KOSC-2;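 also: growth inhibition of KOSC-2 cells, read out by a cell viability assay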
Description: SANGER: Inhibition of human KOSC-2 cell growth in a cell viability assay.

[2] = tested on: TE-1; assay type: functional, cell-based, Homo sapiens; settings: Homo sapiens, TE-1;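 also: growth inhibition of the human TE-1 cell line, read out with a cell viability assay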
Description: SANGER: Inhibition of human TE-1 cell growth in a cell viability assay.

[3] = tested on: DB; assay type: functional, cell-based; settings: Homo sapiens
Description: SANGER: Inhibition of human DB cell growth in a cell viability assay.

[4] = tested on: LXF-289 cell line; assay type: functional, cell-based, Homo sapiens; settings: Homo sapiens, LXF-289
Description: SANGER: Inhibition of human LXF-289 cell growth in a cell viability assay.

[5] = tested on: U-87 MG; assay type: functional, cell-based, U-87MG ATCC; settings: Homo sapiens;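 also: growth inhibition of the cells measured with a viability assay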
Description: SANGER: Inhibition of human U-87-MG cell growth in a cell viability assay.

[6] = tested on: SW1783; assay type: functional, cell-based; settings: Homo sapiens;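 also: cell growth inhibition measured with a viability assay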
Description: SANGER: Inhibition of human SW1783 cell growth in a cell viability assay.

[7] = tested on: NTERA-2-cl-D1; assay type: functional, cell-based, Homo sapiens; settings: Homo sapiens, NTERA-2-cl-D1;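 also: inhibition of cell growth, measured with a cell viability assay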
Description: SANGER: Inhibition of human NTERA-S-cl-D1 cell growth in a cell viability assay.

[8] = tested on: RPMI-8226; assay type: functional, cell-based; settings: Homo sapiens
Description: SANGER: Inhibition of human RPMI-8226 cell growth in a cell viability assay.

[9] = tested on: RCM-1; assay type: functional, cell-based, Homo sapiens; settings: Homo sapiens, RCM-1;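 also: growth inhibition of the RCM-1 line, determined with a cell viability readout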
Description: SANGER: Inhibition of human RCM-1 cell growth in a cell viability assay.

[10] = tested on: T84; assay type: functional, cell-based, Homo sapiens; settings: Homo sapiens, T84;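 also: growth inhibition measured with a cell viability readout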
Description: SANGER: Inhibition of human T84 cell growth in a cell viability assay.

[11] = tested on: CAKI-1; assay type: functional, cell-based, Homo sapiens; settings: Homo sapiens, CAKI-1;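 also: growth inhibition of CAKI-1 cells, measured by a cell viability assay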
Description: SANGER: Inhibition of human CAKI-1 cell growth in a cell viability assay.

[12] = tested on: NCI-H1793; assay type: functional, cell-based, Homo sapiens; settings: Homo sapiens, NCI-H1793;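 also: cell growth inhibition, read out by a cell viability assay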
Description: SANGER: Inhibition of human NCI-H1793 cell growth in a cell viability assay.

[13] = tested on: HCC 2998; assay type: functional, cell-based, Homo sapiens; settings: Homo sapiens, HCC 2998;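 also: growth inhibition of human HCC2998 cells, measured with a cell viability read-out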
Description: SANGER: Inhibition of human HCC2998 cell growth in a cell viability assay.

[14] = tested on: SK-MEL-30; assay type: functional, cell-based; settings: Homo sapiens;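 also: growth inhibition of SK-MEL-30 cells, determined with a cell viability assay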
Description: SANGER: Inhibition of human SK-MEL-30 cell growth in a cell viability assay.

[15] = tested on: EFM-19; assay type: functional, cell-based, Homo sapiens; settings: Homo sapiens, EFM-19;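 also: growth inhibition of human EFM-19 cells, measured in a cell viability assay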
Description: SANGER: Inhibition of human EFM-19 cell growth in a cell viability assay.

[16] = tested on: FTC-133; assay type: functional, cell-based, Homo sapiens; settings: Homo sapiens, FTC-133
[17] = tested on: RPMI-7951; assay type: functional, cell-based, Homo sapiens; settings: Homo sapiens, RPMI-7951
Description: SANGER: Inhibition of human RPMI-7951 cell growth in a cell viability assay.

[18] = tested on: ATN-1; assay type: functional, cell-based; settings: Homo sapiens;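 also: growth inhibition of human ATN-1 cells, read out with a cell viability assay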
Description: SANGER: Inhibition of human ATN-1 cell growth in a cell viability assay.

[19] = tested on: 8505C; assay type: functional, cell-based, Homo sapiens; settings: Homo sapiens, 8505C
Description: SANGER: Inhibition of human 8505C cell growth in a cell viability assay.

[20] = tested on: HT-144; assay type: functional, cell-based, Homo sapiens; settings: Homo sapiens, HT-144
Description: SANGER: Inhibition of human HT-144 cell growth in a cell viability assay.

[21] = tested on: RKO; assay type: functional, cell-based, Homo sapiens; settings: Homo sapiens, RKO;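 also: growth inhibition of human RKO cells, read out with a cell viability assay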
Description: SANGER: Inhibition of human RKO cell growth in a cell viability assay.

[22] = tested on: NCI-N87; assay type: functional, cell-based, Homo sapiens; settings: Homo sapiens, NCI-N87;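 also: growth inhibition of human NCI-N87 cells, read out with a cell viability assay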
Description: SANGER: Inhibition of human NCI-N87 cell growth in a cell viability assay.

[23] = tested on: LB771-HNC; assay type: functional, cell-based, Homo sapiens; settings: Homo sapiens, LB771-HNC;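 also: growth inhibition of LB771-HNC human cells, read out with a cell viability assay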
Description: SANGER: Inhibition of human LB771-HNC cell growth in a cell viability assay.

[24] = tested on: ACHN; assay type: functional, cell-based, Homo sapiens; settings: Homo sapiens, ACHN;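 also: cell viability read-out used to gauge how strongly growth of human ACHN cells is suppressed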
Description: SANGER: Inhibition of human ACHN cell growth in a cell viability assay.

[25] = tested on: HAL-01; assay type: functional, cell-based; settings: Homo sapiens;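 also: growth inhibition of human HAL-01 cells, read out with a cell viability assay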
Description: SANGER: Inhibition of human HAL-01 cell growth in a cell viability assay.

[26] = tested on: HT-29; assay type: functional, cell-based, Homo sapiens; settings: Homo sapiens, HT-29;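 also: growth inhibition of human HT-29 cells, read out by a cell viability assay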
Description: SANGER: Inhibition of human HT-29 cell growth in a cell viability assay.

[27] = tested on: SH-4; assay type: functional, cell-based, Homo sapiens; settings: Homo sapiens, SH-4;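 also: growth inhibition of SH-4 cells, read out with a cell viability assay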
Description: SANGER: Inhibition of human SH-4 cell growth in a cell viability assay.

[28] = tested on: SF-539; assay type: functional, cell-based, Homo sapiens; settings: Homo sapiens, SF-539;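 also: Read-out is a cell viability assay, with IC50 reflecting inhibition of cell growth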
Description: SANGER: Inhibition of human SF539 cell growth in a cell viability assay.

[29] = tested on: DMS-273; assay type: functional, cell-based, Homo sapiens; settings: Homo sapiens, DMS-273
Description: SANGER: Inhibition of human DMS-273 cell growth in a cell viability assay.

[30] = tested on: HCC2157; assay type: functional, cell-based; settings: Homo sapiens;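 also: growth inhibition of the cancer cell line, read out as cell viability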
Description: SANGER: Inhibition of human HCC2157 cell growth in a cell viability assay.

[31] = tested on: IGR-1; assay type: functional, cell-based, Homo sapiens; settings: Homo sapiens, IGR-1;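 also: growth inhibition of human IGR-1 cells, read out with a cell viability assay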
Description: SANGER: Inhibition of human IGR-1 cell growth in a cell viability assay.

[32] = tested on: SW1088; assay type: functional, cell-based, Homo sapiens; settings: Homo sapiens, SW1088;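 also: growth inhibition of human SW1088 cells, read out by a cell viability assay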
Description: SANGER: Inhibition of human SW1088 cell growth in a cell viability assay.

[33] = tested on: Panc1005; assay type: functional, cell-based, Homo sapiens; settings: Homo sapiens, Panc1005;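 also: growth inhibition of human PANC-10-05 cells, measured by a cell viability assay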
Description: SANGER: Inhibition of human PANC-10-05 cell growth in a cell viability assay.

[34] = tested on: SW780; assay type: functional, cell-based, Homo sapiens; settings: Homo sapiens, SW780;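 also: growth inhibition of the cells, read out with a cell viability assay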
Description: SANGER: Inhibition of human SW780 cell growth in a cell viability assay.

[35] = tested on: MDA-MB-231; assay type: functional, cell-based, Homo sapiens; settings: Homo sapiens, MDA-MB-231
Description: SANGER: Inhibition of human MDA-MB-231 cell growth in a cell viability assay.

[36] = tested on: TK-10; assay type: functional, cell-based, Homo sapiens; settings: Homo sapiens, TK-10;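 also: growth inhibition of TK-10 cells, read out in a cell viability assay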
Description: SANGER: Inhibition of human TK10 cell growth in a cell viability assay.

[37] = tested on: SAS; assay type: functional, cell-based, Homo sapiens; settings: Homo sapiens, SAS;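 also: growth inhibition of SAS cells, read out with a cell viability assay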
Description: SANGER: Inhibition of human SAS cell growth in a cell viability assay.

[38] = tested on: TE-8; assay type: functional, cell-based, Homo sapiens; settings: Homo sapiens, TE-8;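 also: growth inhibition of TE-8 cells, measured with a cell viability readout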
Description: SANGER: Inhibition of human TE-8 cell growth in a cell viability assay.

[39] = tested on: KYSE-510; assay type: functional, cell-based, Homo sapiens; settings: Homo sapiens, KYSE-510;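 also: cell viability readout used to measure how strongly growth of the cell line is suppressed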
Description: SANGER: Inhibition of human KYSE-510 cell growth in a cell viability assay.

[40] = tested on: BB65-RCC; assay type: functional, cell-based, Homo sapiens; settings: Homo sapiens, BB65-RCC;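 also: growth inhibition of the cell line, measured with a cell viability assay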
Description: SANGER: Inhibition of human BB65-RCC cell growth in a cell viability assay.

[41] = tested on: NCI-H292; assay type: functional, cell-based, Homo sapiens; settings: Homo sapiens, NCI-H292;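 also: growth inhibition of NCI-H292 cells, read out with a cell viability assay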
Description: SANGER: Inhibition of human NCI-H292 cell growth in a cell viability assay.

[42] = tested on: NCI-H1395; assay type: functional, cell-based, Homo sapiens; settings: Homo sapiens, NCI-H1395;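 also: cell viability assay read-out quantifying reduced proliferation of human NCI-H1395 cells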
Description: SANGER: Inhibition of human NCI-H1395 cell growth in a cell viability assay.

[43] = tested on: NCI-H1155; assay type: functional, cell-based; settings: Homo sapiens;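 also: cell growth inhibition measured by a viability assay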
Description: SANGER: Inhibition of human NCI-H1155 cell growth in a cell viability assay.

[44] = tested on: MZ7-mel; assay type: functional, cell-based, Homo sapiens; settings: Homo sapiens, MZ7-mel;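 also: growth inhibition of human MZ7-mel cells, measured by a cell viability assay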
Description: SANGER: Inhibition of human MZ7-mel cell growth in a cell viability assay.

[45] = tested on: KINGS-1; assay type: functional, cell-based, Homo sapiens; settings: Homo sapiens, KINGS-1;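 also: cell viability assay measuring suppression of KINGS-1 cell growth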
Description: SANGER: Inhibition of human KINGS-1 cell growth in a cell viability assay.

[46] = tested on: SK-MEL-1; assay type: functional, cell-based; settings: Homo sapiens;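 also: growth inhibition of human SK-MEL-1 cells, read out by a cell viability assay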
Description: SANGER: Inhibition of human SK-MEL-1 cell growth in a cell viability assay.

[47] = tested on: BB30-HNC; assay type: functional, cell-based, Homo sapiens; settings: Homo sapiens, BB30-HNC;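 also: growth inhibition of the cultured cell line, read out by a cell viability assay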
Description: SANGER: Inhibition of human BB30-HNC cell growth in a cell viability assay.

[48] = tested on: MZ1-PC; assay type: functional, cell-based, Homo sapiens; settings: Homo sapiens, MZ1-PC;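 also: cell viability assay measuring growth inhibition of human MZ1-PC cells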
Description: SANGER: Inhibition of human MZ1-PC cell growth in a cell viability assay.

[49] = tested on: L-363; assay type: functional, cell-based; settings: Homo sapiens
Description: SANGER: Inhibition of human L-363 cell growth in a cell viability assay.

[50] = tested on: SW 954; assay type: functional, cell-based, Homo sapiens; settings: Homo sapiens, SW 954;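 also: growth inhibition of SW954 human cancer cells, read out as cell viability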
Description: SANGER: Inhibition of human SW954 cell growth in a cell viability assay.

Measured: IC50

O=c1cc(-c2cccc3c2Sc2ccccc2S3)oc(N2CCOCC2)c1 [KU-55933]
> 10 µM: all assays above
